We go through six compounds from PMC6009892, “A novel series of pyrazole-platinum(II) complexes as potential anti-cancer agents that induce cell cycle arrest and apoptosis in breast cancer cells” (Journal of Enzyme Inhibition and Medicinal Chemistry, 2018).

Common to all, as to type: cell-based, human
Data set [1] relates to MCF-7 breast cancer cells. Put plainly: Mitochondrial membrane potential JC-1, MCF-7. Conditions: MCF-7, 20 μM, 24 h; untreated 7.4%. Here is the method:
(§1) Disruption of the MMP was assessed using the lipophilic cationic probe 5,5′,6,6′-tetrachloro-1,1′,3,3′-tetraethylbenzimidazolcarbocyanine iodide (JC-1 MitoScreen kit; BD Biosciences Systems, San Jose, CA), as described previously. Briefly, unfixed cells were washed and re-suspended in PBS supplemented with 10 µg/ml of JC-1. Cells were then incubated for 15 min at room temperature in the dark, washed, and re-suspended in PBS for immediate BD FACSCanto II flow cytometry analysis. The percentage of cells with disrupted MMP was calculated using FACSDiva software (both from BD Biosciences Systems, San Jose, CA).

In data set [2] the test system is MDA-MB-231 breast cancer cells. Put plainly: Mitochondrial membrane potential JC-1, MDA-MB-231. The conditions noted are these: MDA-MB-231, 20 μM, 24 h; untreated 5.8%. The method, then: as §1
Data set [3] deals with MCF-7 breast cancer cells. Put plainly: Cell cycle analysis by flow cytometry (PI), MCF-7. Conditions: breast cancer cells (MCF-7), 20 μM, 24 h, versus control. Here is the method:
Distribution of cell cycle phases was analysed by flow cytometry. Briefly, MCF-7 and MDA-MB-231 cells were seeded into six-well plates at a density of 2.5 × 10^5 cells per well and treated with 20 μM of PtPz1–PtPz6 for 24 h. After incubation, the cells were harvested and then fixed with 1 ml of 70% ethanol and kept overnight at −20 °C. Before analysis, the cells were re-suspended in PBS, treated with 50 μg/ml of DNase-free RNase A Solution (Promega), and stained with 100 μg/ml of PI. The FACSCanto II flow cytometer (BD Biosciences Systems, San Jose, CA) was used to read the fluorescence.
(A flow cytometer gives signals particle by particle.)

Data set [4] has as its system MCF-7 breast cancer cells. Nature of the data set: DNA fragmentation TUNEL assay, MCF-7. Conditions: MCF-7, 20 μM, 24 h; control 4.0%. Here is the method: DNA fragmentation associated with apoptosis was examined by the terminal deoxynucleotidyltransferase (TdT)- mediated dUTP nick end labeling (TUNEL) method using a commercial assay kit (APO-Direct Kit; BD Pharmingen, San Diego, CA). After treatment, the cells were fixed with 1% paraformaldehyde in PBS (4°C, 30 min), washed in PBS, and permeabilised with ice-cold 70% ethanol. The APO-Direct Kit TUNEL assay was performed as described by the manufacturer. Briefly, the fixed cells were washed twice using the kit wash buffer, and after centrifugation the supernatant was discarded. The DNA labeling solution (containing TdT enzyme and FITC-dUTP) was added to the cell pellet, and the re-suspended mixture was incubated for 1 h at 37°C with occasional shaking. At the end of incubation time, rinse buffer was added, and after centrifugation the supernatant was discarded. We repeated the cell rinsing with rinse buffer, and then suspended the cell pellet in PI/RNase staining buffer. Cells were incubated at room temperature for 30 min and immediately analysed in a BD FACSCanto II flow cytometer. In total, 10,000 events were collected per test sample. The results were analysed with FACSDiva software (both from BD Biosciences Systems, San Jose, CA). The percentage of cells with distinctive apoptotic DNA strand breaks and distinguished by green fluorescent emission was calculated.

In a further data set the test system is fibroblast cells. Nature of the data set: MTT cell viability assay, fibroblasts. Here is the method:
MCF-7, MDA-MB-231 (both human breast cancer cell lines), and fibroblast cells were obtained from American Type Culture Collection (ATCC, Manassas, VA, USA). DMEM and FBS used in a cell culture were from Gibco (USA). Glutamine, penicillin, and streptomycin were obtained from Quality Biologicals Inc. (USA). DMEM media was blended with 50 units/ml of penicillin, 50 μg/ml of streptomycin, 10% of FBS. All cell lines were cultured in 5% CO2 and fully humidified at 37 °C. Cells were cultured in Costar flasks and sub-confluent cells were detached with 0.05% trypsin and 0.02% ethylenediaminetetraacetic acid in calcium-free phosphate-buffered saline (PBS), counted in hemocytometers, and plated at 5 × 10^5 cells/well of six-well plates (Thermo Scientific, New York, NY, USA) in 2 ml of growth medium (DMEM without phenol red with 10% CPSR1). Cells reached about 80% of confluency at day 2, and in most cases such cells were used for the assays.
The viability of cultured cells was decided through assaying the reduction of MTT to formazan. In brief, MCF-7, MDA-MB-231, and fibroblast cells line were seeded at an initial density of 1 × 10^5 cells per well. Then, the cells were incubated at 37 °C for 24 h. Subsequently, cultured cells were treated with a medium containing concentrations (5, 10, 20, 30, 40, and 50 μM) of PtPz1–PtPz6 for 24 h and 48 h. After the incubation period, MTT was added into all wells in the final concentration of 0.5 mg/ml. After that, the cells were incubated at 37 °C for 4 h. Then, by removing the medium, 200 μl of DMSO was added to all wells. As a result, insoluble formazan was dissolved in DMSO (0.5%). At 570 nm (630 nm as a reference), the absorbance was measured in an Evolution 201 reader (Thermo Scientific, Waltham, MA).
Background: Formazan colour is commonly taken as a measure of viable cells.

Data set [5] deals with MDA-MB-231 breast cancer cells. Put plainly: Annexin V-FITC/PI flow cytometry, MDA-MB-231. The conditions noted are these: MDA-MB-231, 20 μM, 24 h; for percent of cells with early and late apoptosis: control 7.1%. Here is the method:
(§2) To characterise the mode of cell death induced by PtPz1–PtPz6, a flow cytometry analysis was performed using Apoptosis Detection Kit II (BD Pharmingen, San Diego, CA), according to the manufacturer’s instructions. Cells (10000 cells measured) were analysed in a flow cytometer (BD FACSCanto II flow cytometer, San Jose, CA). Annexin V bound with high affinity to phosphatidylserine and thus could be used to identify cells in all stages of the programmed cell death. Propidium iodide (PI) stained cells with a disrupted cell membrane, and it could be used to identify late apoptotic and dead cells. Cells cultured in a drug-free medium were used as controls. […] Results were analysed with FACSDiva software (BD Biosciences Systems, San Jose, CA).

The subject of data set [6] is MCF-7 breast cancer cells. Put plainly: Annexin V-FITC/PI flow cytometry, MCF-7. Conditions: MCF-7, 20 μM, 24 h; for percent of cells with early and late apoptosis: control 8.5%. The method, then: as §2
Setting [7] is: 24 h incubation, 5-50 μM, read-out: IC50 (cell viability, MTT).
Setting [8] is: 48 h incubation, 5-50 μM, read-out: IC50 (cell viability, MTT).

Where two headings read alike, the source gives them in different places. Some results are limits rather than exact numbers.

As to `Cc1cc(C)[n+]([Pt-2]2([n+]3c(C)cc(C)n3CO)[N](c3ccc(C(=N)N)cc3)N=[N+](c3ccc(C(=N)N)cc3)[Pt-2]([n+]3c(C)cc(C)n3CO)([n+]3c(C)cc(C)n3CO)[N](c3ccc(C(=N)N)cc3)N=[N+]2c2ccc(C(=N)N)cc2)n1CO.Cl.Cl.Cl.Cl.O.O` [PtPz1, [Pt2(N-hydroxymethyl-3,5-dimethylpyrazole)4(berenil)2]·4HCl·2H2O], the “percent of cells with decrease ΔΨm” value in data set [1] was found to be 91.7%; in data set [2], 90.7%. Further, in data set [3], the “accumulation of cells in G2/M phase” value was determined as 2.0 fold. For the same compound, in data set [4], the “percent of TUNEL positive cells” value was 55.7%. Also, the IC50 in the data set on fibroblast cells (setting [7]) was determined as 24 ± 3 µM; in the data set with fibroblast cells (setting [8]), 19 ± 2 µM.
As for `Cc1c[nH][n+]([Pt-2]2([n+]3[nH]cc(C)c3C)[N](c3ccc(C(=N)N)cc3)N=[N+](c3ccc(C(=N)N)cc3)[Pt-2]([n+]3[nH]cc(C)c3C)([n+]3[nH]cc(C)c3C)[N](c3ccc(C(=N)N)cc3)N=[N+]2c2ccc(C(=N)N)cc2)c1C.Cl.Cl.Cl.Cl.O.O` [PtPz3, [Pt2(3,4-dimethylpyrazole)4(berenil)2]·4HCl·2H2O], the “percent of cells with decrease ΔΨm” value in data set [1] turned out to be 86.2%. The “accumulation of cells in G2/M phase” value in data set [3] was found to be 2.0 fold. The “percent of TUNEL positive cells” value in data set [4] amounted to 46.5%. Further, the figures for the IC50 in the data set with fibroblast cells (setting [7]) and with fibroblast cells (setting [8]) were 32 ± 1 µM and 28 ± 1 µM, respectively.
`CCn1ccc[n+]1[Pt-2]1([n+]2cccn2CC)[N](c2ccc(C(=N)N)cc2)N=[N+](c2ccc(C(=N)N)cc2)[Pt-2]([n+]2cccn2CC)([n+]2cccn2CC)[N](c2ccc(C(=N)N)cc2)N=[N+]1c1ccc(C(=N)N)cc1.Cl.Cl.Cl.Cl.O.O` [PtPz6, [Pt2(N-ethylpyrazole)4(berenil)2]·4HCl·2H2O]: the “percent of cells with early and late apoptosis” value is reported as 18.6% in data set [5] and 17.2% in data set [6]. Also, the values for the viable cells in data set [5] (control 91.6%) and in data set [6] (control 89.7%) were 79.4% and 80.9%, respectively. Moreover, the “percent of TUNEL positive cells” value in data set [4] turned out to be 14.2%. The IC50 in the data set with fibroblast cells (setting [7]) and with fibroblast cells (setting [8]) was greater than 50 µM throughout.
For `Cc1cc(C)[n+]([Pt-2]2([n+]3[nH]c(C)cc3C)[N](c3ccc(C(=N)N)cc3)N=[N+](c3ccc(C(=N)N)cc3)[Pt-2]([n+]3[nH]c(C)cc3C)([n+]3[nH]c(C)cc3C)[N](c3ccc(C(=N)N)cc3)N=[N+]2c2ccc(C(=N)N)cc2)[nH]1.Cl.Cl.Cl.Cl.O.O` [PtPz2, [Pt2(3,5-dimethylpyrazole)4(berenil)2]·4HCl·2H2O], the “percent of cells with decrease ΔΨm” value in data set [1] turned out to be 90.0%. The “accumulation of cells in G2/M phase” value in data set [3] was determined as 2.0 fold. Moreover, the “percent of TUNEL positive cells” value in data set [4] is on record as 47.5%. For the same compound, the results for the IC50 in the data set with fibroblast cells (setting [7]) and with fibroblast cells (setting [8]) were 27 ± 2 µM and 24 ± 2 µM, respectively.
On to `Cc1ccn[nH]1.Cc1ccn[nH]1.Cc1ccn[nH]1.Cc1ccn[nH]1.Cl.Cl.Cl.Cl.N=C(N)c1ccc(N=N[N]([Pt])c2ccc(C(=N)N)cc2)cc1.N=C(N)c1ccc(N=N[N]([Pt])c2ccc(C(=N)N)cc2)cc1.O.O` [PtPz5, [Pt2(5-methylpyrazole)4(berenil)2]·4HCl·2H2O], for which, in data set [4], the “percent of TUNEL positive cells” value stood at 32.1%. For the same compound, the IC50 turned out to be 35 ± 1 µM with fibroblast cells (setting [7]) and 31 ± 2 µM in the data set on fibroblast cells (setting [8]).
As to `N.N.[Cl][Pt][Cl]` [cisplatin, reference compound], the results for the “percent of cells with early and late apoptosis” value in data set [5] and in data set [6] were 10.1% and 10.4%, respectively. Moreover, the “percent of TUNEL positive cells” value in data set [4] is 10.9%. Also, the IC50 in the data set on fibroblast cells (setting [8]) was greater than 50 µM; with fibroblast cells (read-out: IC50 (additional test for cisplatin), 24 h, additional test in concentrations allowing to determine IC50), greater than 100 µM; in the data set with fibroblast cells (read-out: IC50 (additional test for cisplatin), 48 h, additional test in concentrations allowing to determine IC50), greater than 100 µM.
